Data from patent publication US6677368B2, “4-aryl substituted indolinones” (Sugen, Inc., priority 2000, dated 2004).

Columns and labels:
Type in all cases: biochemical
FGFR1 = FGFR1 (Homo sapiens, UniProt P11362); assay: FGFR1 bioassay (ELISA, in vitro kinase activity); details: purified GST-FGFR1, poly(Glu-Tyr) substrate
Protocol: This assay is used to measure the in vitro kinase activity of FGF1-R in an ELISA assay.
1. Costar 96-well ELISA plates (Corning Catalog #3369).
2. Poly(Glu-Tyr) (Sigma Catalog #P0275).
4. 50 mM Hepes Buffer Solution.
5. Blocking Buffer (5% BSA/PBS).
6. Purified GST-FGFR1 (SUGEN, Inc.)
7. Kinase Dilution Buffer. Mix 500 μl 1M Hepes (GIBCO), 20 μl 5% BSA/PBS, 10 μl 100 mM sodium orthovanadate and 50 μl 5M NaCl.
9. ATP/MnCl2 phosphorylation mix: mix 20 μL ATP, 400 μL 1M MnCl2 and 9.56 ml dH2O.
10. NUNC 96-well V bottom polypropylene plates (Applied Scientific Catalog #AS-72092).
12. 0.05% TBST Add 500 μL TWEEN to 1 liter TBS.
13. Rabbit polyclonal anti-phosphotyrosine serum (SUGEN, Inc.).
14. Goat anti-rabbit IgG peroxidase conjugate (Biosource, Catalog #ALI0404).
1. Coat Costar 96 well ELISA plates with 1 μg per well Poly(Glu-Tyr) in 100 μl PBS. Store overnight at 4° C.
2. Wash coated plates once with PBS.
3. Add 150 μL of 5%BSA/PBS Blocking Buffer to each well. Incubate, with shaking, for 1 hr at room temperature.
4. Wash plate 2× with PBS, then once with 50 mM Hepes. Pat plates on a paper towel to remove excess liquid and bubbles.
5. Add 25 μL of 0.4 mM test compound in 4% DMSO or 4% DMSO alone (controls) to plate.
6. Dilute purified GST-FGFR1 in Kinase Dilution Buffer (5 ng kinase/50 μl KDB/well).
7. Add 50 μL of diluted kinase to each well.
8. Start kinase reaction by adding 25 μl/well of freshly prepared ATP/Mn++ (0.4 ml 1M MnCl2, 40 μL 10 mM ATP, 9.56 ml dH2O), freshly prepared).
9. Stop reaction with 25 μL of 0.5M EDTA.
10. Wash plate 4× with fresh TBST.
11. Make up Antibody Dilution Buffer: For 50 ml, mix 5 ml of 5% BSA, 250 μl of 5% milk and 50 μl of 100 mM sodium vanadate, bring to final volume with 0.05% TBST.
12. Add 100 μl per well of anti-phosphotyrosine (1:10000 dilution in ADB). Incubate, with shaking for 1 hr. at room temperature.
14. Add 100 μl per well of Biosource Goat anti-rabbit IgG peroxidase conjugate (1:6000 dilution in ADB). Incubate, with shaking for 1 hr. at room temperature.
15. Wash as in step 10 and then with PBS to remove bubbles and excess TWEEN.
16. Add 100 μl of ABTS/H2O2 solution to each well.
17. Incubate, with shaking, for 10 to 20 minutes. Remove any bubbles.
18. Read assay on Dynatech MR7000 ELISA reader: test filter at 410 nM, reference filter at 630 nM.

PDGFR = target: T1, PDGFR (UniProt P09619); assay: PDGFR bioassay (ELISA, in vitro kinase activity); details: PDGFR-β expressing NIH 3T3 cell lysate, 20 μM ATP
T1 construct: PDGFR-β expressing NIH 3T3 cell lysate (SUGEN, Inc.)
Protocol: This assay is used to the in vitro kinase activity of PDGFR in an ELISA assay.
1. Corning 96-well ELISA plates
2. 28D4C10 monoclonal anti-PDGFR antibody (SUGEN, Inc.).
5. Blocking Buffer (same as for EGFR bioassay).
6. PDGFR-β expressing NIH 3T3 cell lysate (SUGEN, Inc.).
11. Kinase buffer phosphorylation mix: for 10 ml, mix 250 μl 1M TRIS, 200 μl 5M NaCl, 100 μl 1M MnCl2 and 501l 100 mM Triton X-100 in enough dH2O to make 10 ml.
12. NUNC 96-well V bottom polypropylene plates.
14. Rabbit polyclonal anti-phosphotyrosine serum (SUGEN, Inc.).
15. Goat anti-rabbit IgG peroxidase conjugate (Biosource Cat. No. ALI0404).
17. Hydrogen peroxide, 30% solution.
1. Coat Corning 96 well ELISA plates with […] 28D4C 10 in 100 μl PBS per well, hold overnight at 4° C.
2. Remove unbound 28D4C10 from wells by inverting plate to remove liquid. Wash 1× with dH2O. Pat the plate on a paper towel to remove excess liquid.
3. Add 150 μl of Blocking Buffer to each well. Incubate for 30 min. at room temperature with shaking.
4. Wash plate 3× with deionized water, then once with TBST. Pat plate on a paper towel to remove excess liquid and bubbles.
5. Dilute lysate in HNTG (10 μg lysate/100 μl HNTG).
6. Add 100 μl of diluted lysate to each well. Shake at room temperature for 60 min.
7. Wash plates as described in Step 4.
8. Add 80 μl working kinase buffer mix to ELISA plate containing captured PDGFR.
9. Dilute test compound 1:10 in TBS in 96-well polypropylene plates.
10. Add 10 μl diluted test compound to -ELISA plate. To control wells, add 10 μl TBS+10% DMSO. Incubate with shaking for 30 minutes at room temperature.
11. Add 10 μl ATP directly to all wells except negative control well (final well volume should be approximately 100 μl with 20 μM ATP in each well.) Incubate 30 minutes with shaking.
12. Stop reaction by adding 10 μl of EDTA solution to each well.
13. Wash 4× with deionized water, twice with TBST.
14. Add 100 μl anti-phosphotyrosine (1:3000 dilution in TBST) per well.
Incubate with shaking for 30-45 min. at room temperature.
16. Add 100 μl Biosource Goat anti-rabbit IgG peroxidase conjugate (1:2000 dilution in TBST) to each well. Incubate with shaking for 30 min. at room temperature.
18. Add 100 μl of ABTS/H2O2 solution to each well.
19. Incubate 10 to 30 minutes with shaking. Remove any bubbles.
20. If necessary stop reaction with the addition of 100 μl 0.2 M HCl per well.
21. Read assay on Dynatech MR7000 ELISA reader with test filter at 410 nM and reference filter at 630 nM.

P38 = P38 (Homo sapiens, UniProt Q16539); assay: P38 kinase inhibition
FGFR3 = FGFR3 (Homo sapiens, UniProt P22607); assay: FGFR3 kinase inhibition
Chain of FGFR3 (P22607 23-806, species assumed): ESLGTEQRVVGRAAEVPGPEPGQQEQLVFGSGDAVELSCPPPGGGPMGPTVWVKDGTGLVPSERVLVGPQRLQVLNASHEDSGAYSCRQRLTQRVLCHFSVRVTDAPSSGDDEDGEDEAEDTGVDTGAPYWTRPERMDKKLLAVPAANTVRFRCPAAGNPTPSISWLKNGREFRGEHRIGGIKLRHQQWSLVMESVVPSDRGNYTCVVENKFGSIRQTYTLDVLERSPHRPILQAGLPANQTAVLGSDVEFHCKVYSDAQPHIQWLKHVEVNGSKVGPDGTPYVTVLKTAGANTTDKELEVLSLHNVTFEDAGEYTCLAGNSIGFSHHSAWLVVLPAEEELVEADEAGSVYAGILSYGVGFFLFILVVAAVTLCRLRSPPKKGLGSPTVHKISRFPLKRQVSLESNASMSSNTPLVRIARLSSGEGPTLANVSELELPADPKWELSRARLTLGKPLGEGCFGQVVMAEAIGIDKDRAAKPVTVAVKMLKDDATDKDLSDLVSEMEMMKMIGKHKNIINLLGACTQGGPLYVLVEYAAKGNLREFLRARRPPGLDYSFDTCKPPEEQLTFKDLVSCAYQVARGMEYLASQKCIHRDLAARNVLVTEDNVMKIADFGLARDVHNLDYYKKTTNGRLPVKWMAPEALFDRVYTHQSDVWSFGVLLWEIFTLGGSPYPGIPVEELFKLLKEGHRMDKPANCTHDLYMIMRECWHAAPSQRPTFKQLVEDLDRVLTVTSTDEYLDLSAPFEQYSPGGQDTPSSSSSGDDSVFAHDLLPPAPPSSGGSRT

Chain of FGFR1 (P11362 22-822, species assumed): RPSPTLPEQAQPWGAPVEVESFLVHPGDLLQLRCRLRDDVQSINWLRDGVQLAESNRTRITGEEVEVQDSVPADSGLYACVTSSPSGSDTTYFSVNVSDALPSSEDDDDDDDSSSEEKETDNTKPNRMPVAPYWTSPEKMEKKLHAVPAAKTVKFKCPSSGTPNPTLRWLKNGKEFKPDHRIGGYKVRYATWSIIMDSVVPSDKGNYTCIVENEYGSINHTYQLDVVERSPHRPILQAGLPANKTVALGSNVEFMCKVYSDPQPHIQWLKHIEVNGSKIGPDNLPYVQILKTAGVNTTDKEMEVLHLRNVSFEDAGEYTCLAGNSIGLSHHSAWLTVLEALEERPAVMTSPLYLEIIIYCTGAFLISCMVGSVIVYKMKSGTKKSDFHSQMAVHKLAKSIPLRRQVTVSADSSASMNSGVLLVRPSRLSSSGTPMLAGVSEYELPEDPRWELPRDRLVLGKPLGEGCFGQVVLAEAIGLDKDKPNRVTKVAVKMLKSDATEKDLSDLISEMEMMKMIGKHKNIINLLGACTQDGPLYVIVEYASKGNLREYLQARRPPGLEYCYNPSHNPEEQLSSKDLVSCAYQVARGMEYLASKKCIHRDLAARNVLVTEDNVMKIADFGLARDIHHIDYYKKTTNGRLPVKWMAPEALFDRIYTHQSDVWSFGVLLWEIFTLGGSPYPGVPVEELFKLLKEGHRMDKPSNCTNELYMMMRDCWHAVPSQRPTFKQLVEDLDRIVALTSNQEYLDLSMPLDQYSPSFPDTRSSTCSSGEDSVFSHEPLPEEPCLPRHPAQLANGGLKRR
Chain of P38 (Q16539 whole entry): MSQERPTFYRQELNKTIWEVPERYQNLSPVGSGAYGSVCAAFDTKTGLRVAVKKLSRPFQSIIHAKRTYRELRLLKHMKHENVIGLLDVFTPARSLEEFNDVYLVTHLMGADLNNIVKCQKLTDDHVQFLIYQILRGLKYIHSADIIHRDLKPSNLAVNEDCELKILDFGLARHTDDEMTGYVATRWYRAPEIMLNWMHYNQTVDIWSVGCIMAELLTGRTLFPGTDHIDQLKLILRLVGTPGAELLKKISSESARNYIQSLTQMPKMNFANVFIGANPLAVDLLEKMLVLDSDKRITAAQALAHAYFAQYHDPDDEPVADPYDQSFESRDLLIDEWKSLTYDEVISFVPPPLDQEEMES

Row | SMILES | IC50 (FGFR1) [µM] | IC50 (PDGFR) [µM] | IC50 (P38) [µM] | IC50 (FGFR3) [µM]
1 | CCN(CC)CCNC(=O)c1c(C)[nH]c(/C=C2\C(=O)Nc3cccc(-c4ccccc4)c32)c1C [Example 3, 2,4-Dimethyl-5-(2-oxo-4-phenyl-1,2-dihydro-indol-3-ylidenemethyl)-1H-pyrrole-3-carboxylic Acid (2-Diethylamino-ethyl)-amide] | 0.031 | 0.44 | > 10 | 
2 | Cc1[nH]c(/C=C2\C(=O)Nc3cccc(-c4ccc(F)cc4)c32)c(C)c1C(=O)N1CCN(C)CC1 [Example 4, 3-[3,5-Dimethyl-4-(4-methyl-piperazine-1-carbonyl)-1H-pyrrol-2-ylmethylene]-4-(4-fluoro-phenyl)-1,3-dihydro-indol-2-one] | 0.74 | 14.6 | > 10 | 
3 | Cc1[nH]c(/C=C2\C(=O)Nc3cccc(-c4cccc(F)c4)c32)c(C)c1C(=O)NCCn1ccnn1 [Example 15, 5-[4-(3-Fluoro-phenyl)-2-oxo-1,2-dihydro-indol-3-ylidenemethyl]-2,4-dimethyl-1H-pyrrole-3-carboxylic Acid (2-[1,2,3]Triazol-1-yl-ethyl)-amide] | 2.07 | 10.1 | 4.9 | 0.072
4 | Cc1[nH]c(/C=C2\C(=O)Nc3cccc(-c4ccc(Cl)cc4)c32)c(C)c1C(=O)N1CCN(C)CC1 [Example 20, 4-(4-Chloro-phenyl)-3-[3,5-dimethyl-4-(4-methyl-piperazine-1-carbonyl)-1H-pyrrol-2-ylmethylene]-1,3-dihydro-indol-2-one] | 1.15 | 3.39 | > 10 | 1.29
5 | Cc1cc(C(=O)N2CC[C@@H](N(C)C)C2)c(/C=C2\C(=O)Nc3cccc(-c4ccc(Cl)cc4)c32)[nH]1 [Example 25, 4-(4-Chloro-phenyl)-3-[3-((R)-3-dimethylamino-pyrrolidine-1-carbonyl)-5-methyl-1H-pyrrol-2-ylmethylene]-1,3-dihydro-indol-2-one] | 0.56 | 11.7 | > 10 | 0.34
6 | Cc1cc(C(=O)NCCn2ccnn2)c(/C=C2\C(=O)Nc3cccc(-c4cccc(Cl)c4)c32)[nH]1 [Example 34, 2-[4-(3-Chloro-phenyl)-2-oxo-1,2-dihydro-indol-3-ylidenemethyl]-5-methyl-1H-pyrrole-3-carboxylic Acid (2-[1,2,3]Triazol-1-yl-ethyl)-amide] | 0.5 | > 20 | > 10 | 0.94
7 | Cc1cc(C(=O)N2C[C@@H](C)N[C@@H](C)C2)c(/C=C2\C(=O)Nc3cccc(-c4cccc(Cl)c4)c32)[nH]1 [Example 35, 4-(3-Chloro-phenyl)-3-[3-((cis)-3,5-dimethyl-piperazine-1-carbonyl)-5-methyl-1H-pyrrol-2-ylmethylene]-1,3-dihydro-indol-2-one] | 0.22 | 1.59 | > 10 | 1.99
8 | Cc1cc(C(=O)NCCn2ccnn2)c(/C=C2\C(=O)Nc3cccc(-c4ccccc4F)c32)[nH]1 [Example 99, 2-[4-(2-Fluoro-phenyl)-2-oxo-1,2-dihydro-indol-3-ylidenemethyl]-5-methyl-1H-pyrrole-3-carboxylic Acid (2-[1,2,3]Triazol-1-yl-ethyl)-amide] | 0.61 | > 20 |  | 
9 | Cc1[nH]c(/C=C2\C(=O)Nc3cccc(-c4cccc(C(F)(F)F)c4)c32)c(C)c1C(=O)N1CCN(C)CC1 [Example 104, 3-[3,5-Dimethyl-4-(4-methyl-piperazine-1-carbonyl)-H-pyrrol-2-ylmethylene]-4-(3-trifluoromethyl-phenyl)-1,3-dihydro-indol-2-one] | 0.3 | 19 |  | 
10 | CCN(CC)CCNC(=O)c1c(C)[nH]c(/C=C2\C(=O)Nc3cccc(-c4ccc(OC(F)(F)F)cc4)c32)c1C [Example 140, 2,4-Dimethyl-5-[2-oxo-4-(4-trifluoromethoxy-phenyl)-1,2-dihydro-indol-3-ylidenemethyl]-1H-pyrrole-3-carboxylic Acid (2-Diethylamino-ethyl)-amide] | 0.52 | > 20 |  | 

Further compounds by falling IC50 (FGFR1), results first:

Row | IC50 (FGFR1) [µM] | IC50 (PDGFR) [µM] | IC50 (P38) [µM] | IC50 (FGFR3) [µM] | SMILES
11 | 1.54 | 11.9 | > 10 |  | Cc1cc(C(=O)N2CC[C@H](N(C)C)C2)c(/C=C2\C(=O)Nc3cccc(-c4ccc(F)cc4)c32)[nH]1 [Example 10, 3-[3-((S)-3-Dimethylamino-pyrrolidine-1-carbonyl)-5-methyl-1H-pyrrol-2-ylmethylene]-4-(4-fluoro-phenyl)-1,3-dihydro-indol-2-one]
12 | 0.63 | > 20 | > 10 | 0.61 | Cc1cc(C(=O)N2C[C@@H](C)N[C@@H](C)C2)c(/C=C2\C(=O)Nc3cccc(-c4ccc(Cl)cc4)c32)[nH]1 [Example 27]
13 | 0.35 | 11.6 | > 10 | 1.77 | Cc1cc(C(=O)N2CC[C@H](N(C)C)C2)c(/C=C2\C(=O)Nc3cccc(-c4cccc(Cl)c4)c32)[nH]1 [Example 32, 4-(3-Chloro-phenyl)-3-[3-((S)-3-dimethylamino-pyrrolidine-1-carbonyl)-5-methyl-1H-pyrrol-2-ylmethylene]-1,3-dihydro-indol-2-one]
14 | 0.24 | 9.87 |  |  | Cc1cc(C(=O)NCCN2CCCC2)c(/C=C2\C(=O)Nc3cccc(-c4ccc(F)c(Cl)c4)c32)[nH]1 [Example 119, 2-[4-(3-Chloro-4-fluoro-phenyl)-2-oxo-1,2-dihydro-indol-3-ylidenemethyl]-5-methyl-1H-pyrrole-3-carboxylic Acid (2-Pyrrolidin-1-yl-ethyl)-amide]
15 | 0.083 | 3.76 |  |  | Cc1[nH]c(/C=C2\C(=O)Nc3cccc(-c4ccccc4F)c32)c(C)c1C(=O)N1CCN(C)CC1 [Example 93, 3-[3,5-Dimethyl-4-(4-methyl-piperazine-1-carbonyl)-1H-pyrrol-2-ylmethylene]-4-(2-fluoro-phenyl)-1,3-dihydro-indol-2-one]
